Entries after “also recorded” stand apart in the source; their conditions may differ.
Test system: CD19+ B cells
Experiment: RGD blocking of B cells with Cilengitide
Type: cell-based, C57BL6 mice
Conditions: 10 or 50 μM Cilengitide, 2 days, 3D organoids; αvβ3 and αvβ5 integrin binding to RGD
Description: Immune organoids were incubated in rinsed and incubated in FACS buffer containing fluorescence-conjugated antibodies and/or live cell stains for 12 hours at cell culture conditions. The samples underwent three rinsing rounds with each one involving aspiration of old medium and incubation in fresh FACS buffer for 1 hour. Each organoid was covered with 1×PBS during imaging with Zeiss 710 confocal microscope (Zeiss). In all flow cytometry experiments we started with same number of naïve B cells, i.e. 20,000 B cells. At each time point, samples were degraded using collagenase and the entire cell suspension (regardless of final cell numbers) was re-suspended in equal volume for all samples and equally divided into 3 separate staining groups for flow cytometry analysis (to stain for CD19, GL7, Fas, IgM, IgG1, and IgE). The entire volume was analyzed for total number of cells. Extracted cells were stained by incubation in FACS buffer containing various combinations of antibodies with 1:1000 dilution for 45 minutes in the dark at 4° C. The antibodies consisted of: FITC-, APC, or PE-Cy7-conjugated anti-mouse CD19, GL7, Fas, CD40L, IgG, and IgM (eBioscience). FACS buffer was prepared using 1×PBS++ with 10% FBS. The cell suspension was rinsed twice using the same buffer prior to low cytometer using BD Accuri™ C6 flow cytometer. Data analysis was performed using FlowJo (Tree Star). […]

Q: Which “change in CD19+ B cells when RGD signaling is blocked” value does the source give for `CC(C)[C@H]1C(=O)N[C@@H](CCCN=C(N)N)C(=O)NCC(=O)N[C@@H](CC(=O)O)C(=O)N[C@H](Cc2ccccc2)C(=O)N1C` [Cilengitide] here?
A: partial reduction; also recorded: partial but significant decrease

Reference: patent US10317395B1, “Ex vivo engineered immune organoids for controlled germinal center reactions” (Cornell University, priority 2015, dated 2019)
